Reference: US7932246B2, “Histone deacetylase inhibitors” (Chroma Therapeutics Ltd., priority 2005, dated 2011)
Structures can show the parent of a compound that is named as a salt.

Tests used:
[1] = molecular target: histone deacetylase activity (HeLa nuclear extract); assay: HDAC fluorescent activity assay (Biomol, Fluor de Lys substrate); format: biochemical; conditions: IC50 range
Outline: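 HeLa nuclear extract served as the deacetylase source for the acetyl-lysine Fluor de Lys substrate, with or without inhibitor. Developer converts deacetylated substrate to a fluorophore.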

[2] = test system: U937; assay: U937 cell inhibition assay (WST-1 cell viability); format: cell-based; conditions: Homo sapiens, U-937; U937 cells, 72-96 h, WST-1 assay, IC50 range
Outline: (§1)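 Cells seeded at 1000-2000/well, grown 24 h, then treated for 72-96 h with 8 concentrations (top 10 μM, 3-fold, 6 replicates). Viability by WST-1; inhibition relative to DMSO, IC50 by sigmoidal variable-slope fit.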

[3] = test system: HeLa cells; assay: HeLa cell inhibition assay (SRB cell viability); format: cell-based; conditions: Homo sapiens, HeLa, 72 h, IC50 range
Outline: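 Log-phase cells seeded at 1000 cells/well, grown 24 h, then exposed to compound (final 20 μM top concentration) for 72 h. Viability by sulphorhodamine B staining, % inhibition relative to DMSO control. IC50 from 8-point sigmoidal variable-slope fit.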

[4] = test system: HUT; assay: HUT cell inhibition assay (WST-1 cell viability); format: cell-based; conditions: HUT cells, 72-96 h, WST-1 assay, IC50 range
Outline: as §1

| SMILES | IC50 [1] [nM] | IC50 [2] [nM] | IC50 [3] [nM] | IC50 [4] [nM] |
| --- | --- | --- | --- | --- |
| O=C(NO)c1cnc(N2CC3C(C2)C3NCc2cc(F)cc(F)c2)nc1 (stereo not drawn) [Example 28, N-Hydroxy 2-{6-[(3,5-difluorobenzyl)amino]-3-azabicyclo[3.1.0]hex-3-yl}pyrimidine-5-carboxamide] | < 100 | < 330 | < 330 | < 330 |
| O=C(NO)c1cnc(N2CC3C(C2)C3N2Cc3ccccc3C2)nc1 (stereo not drawn) [Example 64, N-Hydroxy 2-[6-(1,3-dihydro-2H-isoindol-2-yl)-3-azabicyclo[3.1.0]hex-3-yl]pyrimidine-5-carboxamide] | < 100 | 331 to 3300 | 331 to 3300 | < 330 |
| O=C(NO)c1cnc(N2CC3C(CNCc4ccc5ccccc5c4)C3C2)nc1 (stereo not drawn) [Example 71, N-Hydroxy 2-{6-[(naphthalen-2-ylmethylamino)methyl]-3-azabicyclo[3.1.0]hex-3-yl}pyrimidine-5-carboxamide] | < 100 | 331 to 3300 | 331 to 3300 | < 330 |
| O=C(CCCCc1ccccc1)NC1C2CN(c3ncc(C(=O)NO)cn3)CC21 (stereo not drawn) [Example 7, N-Hydroxy 2-[6-(5-phenylpentanoylamino)-3-azabicyclo[3.1.0]hex-3-yl]pyrimidine-5-carboxamide] | < 100 | 331 to 3300 | 331 to 3300 | 331 to 3300 |
| O=C(NO)c1cnc(N2CC3C(C2)C3NCc2ccc(-c3ccccc3)cc2)nc1 (stereo not drawn) [Example 27, N-Hydroxy 2-{6-[(biphenyl-4-ylmethyl)-amino]-3-aza-bicyclo[3.1.0]hex-3-yl}pyrimidine-5-carboxamide] | < 100 | < 330 | < 330 | < 330 |
| O=C(NO)c1ccc(N2CC3CN(Cc4ccc5ccccc5c4)CC3C2)nc1 (stereo not drawn) [Example 87] | < 100 | 331 to 3300 | 331 to 3300 | 331 to 3300 |
| O=C(NO)c1cnc(N2CC3CN(Cc4ccc5ccccc5c4)CC3C2)nc1 (stereo not drawn) [Example 79, N-Hydroxy 2-(5-naphthalen-2-ylmethylhexahydropyrrolo[3,4-c]pyrrol-2(1H)-yl)pyrimidine-5-carboxamide] | < 100 | < 330 | < 330 | < 330 |
| O=C(NO)c1cnc(N2CC3C(C2)C3N2CCc3ccccc3C2)nc1 (stereo not drawn) [Example 66, N-Hydroxy 2-[6-(3,4-dihydroisoquinolin-2(1H)-yl)-3-azabicyclo[3.1.0]hex-3-yl]pyrimidine-5-carboxamide] | < 100 | 331 to 3300 | 331 to 3300 | 331 to 3300 |
| O=C(NO)c1cnc(N2CC3C(C2)C3N(CCc2ccccn2)S(=O)(=O)c2ccc3ccccc3c2)nc1 (stereo not drawn) [Example 54, N-Hydroxy 2-{6-[(naphthalene-2-sulfonyl)-(2-pyridin-2-ylethyl)-amino]-3-azabicyclo[3.1.0]hex-3-yl}pyrimidine-5-carboxamide] | < 100 | 331 to 3300 | 331 to 3300 | 331 to 3300 |
| O=C(NO)c1cnc(N2CC3C(C2)C3NCc2ccc3ccccc3c2)nc1 (stereo not drawn) [Example 20, N-Hydroxy 2-{6-[(2-naphthylmethyl)amino]-3-azabicyclo[3.1.0]hex-3-yl}pyrimidine-5-carboxamide] | < 100 | < 330 | 331 to 3300 | < 330 |
| O=C(NO)c1cnc(N2CC3C(C2)C3NS(=O)(=O)c2ccc3ccccc3c2)nc1 (stereo not drawn) [Example 1, N-Hydroxy 2-{6-[(2-naphthylsulfonyl)amino]-3-azabicyclo[3.1.0]hex-3-yl}pyrimidine-5-carboxamide trifluoroacetate] | < 100 | < 330 | < 330 | < 330 |
| O=C(NO)c1cnc(N2CC3C(C2)C3NCCC(c2ccccc2)c2ccccc2)nc1 (stereo not drawn) [Example 39, N-Hydroxy 2-[6-(3,3-diphenylpropylamino)-3-azabicyclo[3.1.0]hex-3-yl]pyrimidine-5-carboxamide] | < 100 | < 330 | 331 to 3300 | < 330 |
| O=C(NO)c1cnc(N2CC3CN(S(=O)(=O)c4cc(C(F)(F)F)cc(C(F)(F)F)c4)CC3C2)nc1 (stereo not drawn) [Example 81, N-hydroxy 2-[5-(3,5-bistrifluoromethylbenzenesulfonyl)hexahydropyrrolo[3,4-c]pyrrol-2(1H)-yl]-pyrimidine-5-carboxamide] | < 100 | 331 to 3300 | > 3300 | 331 to 3300 |
| Cc1nccn1CCN(C1C2CN(c3ncc(C(=O)NO)cn3)CC21)S(=O)(=O)c1ccc2ccccc2c1 (stereo not drawn) [Example 47, N-Hydroxy 2-{6-[[2-(2-methylimidazol-1-yl)ethyl](naphthalene-2-sulfonyl)amino]-3-azabicyclo[3.1.0]hex-3-yl}pyrimidine-5-carboxamide] | < 100 | 331 to 3300 | 331 to 3300 | 331 to 3300 |
| CCN(CC)CCC(=O)N(Cc1ccc2ccccc2c1)C1C2CN(c3ncc(C(=O)NO)cn3)CC21 (stereo not drawn) [Example 59, N-Hydroxy 2-{6-[(3-diethylaminopropionyl)naphthalen-2-ylmethylamino]-3-azabicyclo[3.1.0]hex-3-yl}-pyrimidine-5-carboxamide] | < 100 | < 330 | < 330 | < 330 |
| O=C(NO)c1cnc(N2CC3CN(C(=O)c4ccc5ccccc5c4)CC3C2)nc1 (stereo not drawn) [Example 77, N-Hydroxy 2-[5-(naphthalene-2-carbonyl)hexahydropyrrolo[3,4-c]pyrrol-2(1H)-yl]pyrimidine-5-carboxamide] | < 100 | 331 to 3300 | < 330 | < 330 |
| O=C(NO)c1cnc(N2CC3C(C2)C3NCc2ccc(Cl)cc2)nc1 (stereo not drawn) [Example 30, N-Hydroxy 2-{6-[(4-chlorobenzyl)amino]-3-azabicyclo[3.1.0]hex-3-yl}pyrimidine-5-carboxamide] | < 100 | < 330 | < 330 | < 330 |
| O=C(NO)c1cnc(N2CC3C(C2)C3N(Cc2cccnc2)Cc2ccc3ccccc3c2)nc1 (stereo not drawn) [Example 58, N-Hydroxy 2-[6-(naphthalen-2-ylmethylpyridin-3-ylmethylamino)-3-aza-bicyclo[3.1.0]hex-3-yl]pyrimidine-5-carboxamide] | 101 to 1000 | 331 to 3300 | 331 to 3300 | 331 to 3300 |
